Holding throughout (assay): NCI anticancer screen, dose series, 48 h
Test [1] deals with NCI-H23 lung.
Test [2] deals with SN12C renal.
Test [3] relates to NCI-H522 lung.
Test [4] relates to UO-31 renal.

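96-well plates; 48 h exposure; 5 concentrations. Endpoints by linear interpolation between flanking doses. Not reached: highest tested concentration assigned. GI50: concentration for 50% inhibition of growth. TGI marks complete inhibition of growth.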

`CC1CCCOc2ccc(cc2)C=Nc2ccc(cc2)CCc2ccc(cc2)N=Cc2ccc(cc2)OCCC1` (stereo unspecified): the TGI in test [1], in test [2], in test [3] and in test [4] was above 100 µM each time.

As for `COC(=O)c1cc(Br)c(C(=O)C(Cl)(Cl)Cl)[nH]1`, the TGI in test [1], in test [2], in test [3] and in test [4] was above 100 µM in each case.

In the case of `CCOC(=O)C(NNS(=O)(=O)c1ccc(C)cc1)S(=O)(=O)C(F)(F)C(F)(F)C(F)(F)C(F)(F)F` (stereo unspecified), the TGI in test [1], in test [2], in test [3] and in test [4] was above 100 µM throughout.

Turning to `O=S(=O)(O)c1cc(S(=O)(=O)O)c2c(N=Nc3cccc4ccccc34)c(O)ccc2c1`, the TGI in test [1], in test [2], in test [3] and in test [4] was above 100 µM each time.

For the molecule `O=C1CCC(=O)N1CNc1ccc2c(c1)Sc1ccccc1O2`, the TGI in test [1] was above 100 µM; in test [2] it was 76.1 µM; in test [3], 53.6 µM; in test [4] it was 91.5 µM.

For `CCCCCCCC/C=C\CCCCCCCCNc1ccn(C2OC(COP(=O)(O)OC3CC(n4cc(F)c(=O)[nH]c4=O)OC3CO)C(O)C2O)c(=O)n1` (stereo unspecified), the TGI was above 30.3 µM in test [1], above 100 µM in test [2], above 100 µM in test [3] and above 100 µM in test [4].

Take `CC(=O)c1ccc(-c2oc(-c3ccccc3)cc2-c2ccc3c(c2)OCO3)s1`: the figures for the TGI in test [1], in test [2] and in test [4] were 89.9 µM, above 100 µM and above 100 µM, respectively.

With `CCCCCCNC(=O)c1cc(NCc2cc(OC)ccc2OC)ccc1O`, the TGI in test [1] came out at 80.6 µM; in test [2], 53.7 µM; in test [3] it was 33.1 µM; in test [4], 53.1 µM.

With `O=C1O/C(=C\c2ccc(O)c(Br)c2)C(c2ccc(O)cc2)=C1Cl`, the TGI was 61.6 µM in test [1], 68.6 µM in test [3] and above 100 µM in test [4].

Turning to `COc1cc(CC2CCc3nc(N)nc(N)c3C2)cc(OC)c1OC` (stereo unspecified), the TGI in test [1] was above 72.5 µM; in test [2], above 100 µM; in test [3] it was 17 µM; in test [4], above 71.5 µM.

For the molecule `COC(=O)c1cc(NC2OCC(OC(C)=O)C(OC(C)=O)C2OC(C)=O)nc(SC)c1C(=O)OC` (stereo unspecified), the TGI in test [1], in test [2], in test [3] and in test [4] was above 100 µM throughout.

For `CN(C(=O)OC(C)(C)C)[C@H]1CCCC[C@H]1N1CCCC1`, the TGI in test [1], in test [2], in test [3] and in test [4] was above 100 µM each time.

For `C1COC2SC3=C(SC(=C4SC5=C(SCCS5)S4)S3)SC2O1` (stereo unspecified), the TGI in test [1], in test [2], in test [3] and in test [4] was above 100 µM in each case.

For `COc1ccc(C2Oc3c(cccc3OC)C=C2[N+](=O)[O-])cc1OC` (stereo unspecified), the TGI in test [1] came out at 22.3 µM; in test [3] it was 12.8 µM; in test [4], 29.2 µM.

For `CO/C(=N/N1CC1C(F)(F)F)c1ccncc1` (stereo unspecified), the TGI in test [1], in test [2], in test [3] and in test [4] was above 100 µM each time.

On to `C=C(Cl)C(C)(Cl)CCC(Cl)C(C)(C)Cl` (stereo unspecified), for which the TGI is above 100 µM in test [1], above 100 µM in test [2], 56.3 µM in test [3] and above 100 µM in test [4].

As for `Cc1cc(Cl)nc(NC(=O)CSc2ccc(Cl)cc2)n1`, the TGI in test [1], in test [2], in test [3] and in test [4] was above 100 µM in each case.

As for `Cc1nnc(Nc2ccc(Cl)cc2)o1`, the TGI in test [1], in test [2], in test [3] and in test [4] was above 10 µM each time.

For the molecule `C[C@]12CC[C@@H]3c4ccc(OC(=O)c5ccccc5)cc4CC[C@H]3[C@@H]1CCC2OC(=O)c1cccc2c(=O)c3ccccc3[nH]c12` (stereo partly specified), the TGI in test [1] was determined as 48.3 µM; in test [2], 30.1 µM; in test [3], 45.2 µM; in test [4], 68.6 µM.

Consider `O=C(O)c1ccc(Nc2ccnc3cc(Cl)ccc23)cc1O`, for which the TGI in test [1], in test [2], in test [3] and in test [4] was above 100 µM each time.

Take `N#Cc1c(C#N)c(-c2cccc([N+](=O)[O-])c2)n(-c2ccccc2)c1N`: the TGI in test [1], in test [2], in test [3] and in test [4] was above 100 µM in each case.

In the case of `COC(=O)[C@H](CCSC)NC(=O)c1ccc(CNC(=O)/C=C/c2cccc(Oc3ccccc3)c2)cc1`, the TGI is above 92.1 µM in test [1], above 100 µM in test [2], above 100 µM in test [3] and above 100 µM in test [4].

Take `CC1=CC(C)C(C)N(CCNC(=O)Nc2ccccc2)c2ccccc21` (stereo unspecified): the TGI in test [1] was 49.1 µM; in test [2], above 100 µM; in test [3], 40.2 µM; in test [4] it was 98.6 µM.

As for `c1ccc(N/N=C2\CC(c3ccccc3)Oc3ccccc32)cc1` (stereo unspecified), the TGI in test [1] is above 100 µM; in test [2] it was above 100 µM; in test [3], 53.6 µM; in test [4], above 100 µM.

Consider `Cc1cc(S(=O)(=O)Nc2nc(N)n(-c3cnc4ccccc4n3)n2)c(S)cc1Cl`, for which the TGI in test [2], in test [3] and in test [4] was above 100 µM throughout.

In test [2], `Cc1ccc(S(=O)(=O)Nn2c(-c3ccccc3)c(C#N)c(-c3ccc(Cl)cc3)c(C#N)c2=O)cc1` returned a TGI above 100 µM.

For `CC12CN(CC[N+](C)(C)C)CC1(C)C1CCC2O1` (stereo unspecified), the TGI in test [1], in test [2], in test [3] and in test [4] was above 100 µM in each case.

As for `CCOC(=O)Cc1ccc(Nc2nc3cc(C(F)(F)F)ccc3nc2C(=O)OCC)cc1`, the TGI in test [1], in test [2], in test [3] and in test [4] was above 100 µM each time.

As to `CCC1(O)CC(OC2CC(N(C)C)C(OC3CC(O)C(OC4OC(C)C(=O)C=C4N)C(C)O3)C(C)O2)c2c(O)c3c(c(O)c2C1C(=O)OC)C(=O)c1cccc(O)c1C3=O` (stereo unspecified), the TGI in test [1] amounted to 0.036 µM; in test [2] it was 1.13 µM; in test [3], 0.203 µM.

On to `C=CCNC1=C2C[C@@H](C)C[C@@H](OC)[C@H](OC(=O)CN(C)C)[C@H](C)/C=C(\C)[C@@H](OC(N)=O)[C@H](OC)/C=C\C=C(/C)C(=O)NC(=CC1=O)C2=O`, for which the TGI in test [1] worked out at 19.8 µM; in test [2] it was 17.7 µM; in test [3] it was 18.3 µM; in test [4], 24.1 µM.

Consider `COc1cccc2c1C(=O)C(=O)c1c-2oc(=O)c2cc(C)cc(OC)c12`, for which the TGI in test [1] was 58.4 µM; in test [2] it was above 75 µM; in test [3], 26.5 µM; in test [4] it was above 75 µM.

Regarding `CC(=O)O[C@H]1C(=O)[C@@]2(C)C(C(OC(=O)c3ccccc3)[C@]3(O)CC(OC(=O)C(O)C(NC(=O)c4ccccc4)c4ccc(F)cc4)C(C)=C1C3(C)C)[C@]1(OC(C)=O)CO[C@@H]1C[C@@H]2O` (stereo partly specified), the TGI in test [1] was above 10 µM; in test [2], above 10 µM; in test [3], 1.34 µM; in test [4] it was above 10 µM.

Take `C#CCCCC(=C)C[C@H](OCc1ccccc1)[C@H]1OC(=O)[C@@H]1C`: the TGI in test [1] is above 100 µM; in test [2], above 100 µM; in test [4], 58.8 µM.

Regarding `CC(=O)N1NC(c2ccccc2)=CC(=O)/C1=C/C(=O)c1ccccc1`, the TGI is above 100 µM in test [1], above 100 µM in test [2], 57.2 µM in test [3] and above 100 µM in test [4].

For `O=C1c2ccccc2C(=O)c2c(OCC3CO3)ccc(OCC3CO3)c21` (stereo unspecified), the TGI came to 4.74 µM in test [2], 13 µM in test [3] and 10.4 µM in test [4].

As for `CC1=C(C)SC(=C2Sc3c(n(C)c(=O)[nH]c3=O)S2)S1`, the TGI in test [1], in test [2], in test [3] and in test [4] was above 100 µM in each case.

Regarding `CC(C)=CCNc1ncnc2c1ncn2CCC(=O)OC(C)(C)C`, the TGI in test [1], in test [2], in test [3] and in test [4] was above 100 µM each time.

Turning to `CCOC(=O)/C(C#N)=C(/NS(=O)(=O)c1cc(C)c(Cl)cc1[S-])[n+]1ccc(N(C)C)cc1`, the TGI in test [1], in test [2], in test [3] and in test [4] was above 100 µM each time.

Regarding `COC(=O)c1cc(C)ccc1/C=C1\Cc2cc(C)c(C)cc2C1=O`, the TGI in test [1], in test [2], in test [3] and in test [4] was above 100 µM in each case.

Take `O=C(Sc1c(-c2ccccc2)c(=O)n(-c2ccccc2)c(=S)n1-c1ccccc1)c1ccc(Cl)cc1`: the TGI in test [1], in test [2] and in test [3] was above 100 µM throughout.

Regarding `O=C(O)CN1CCNCCN(CC(=O)O)CC1`, the TGI is 20.7 µM in test [1], above 100 µM in test [2], 30.7 µM in test [3] and above 100 µM in test [4].

Consider `CCOC(=O)Cn1c(=O)c2nc(SC)sc2n(-c2ccc(C)cc2)c1=S`, for which the TGI in test [1] is above 89.5 µM; in test [2], above 100 µM; in test [3] it was above 100 µM; in test [4], above 100 µM.

For the molecule `COC(=O)/C=C\c1ccc2c(c1)CC1(C2)Cc2ccc(/C=C/C(=O)OC)cc2C1` (stereo unspecified), the TGI in test [1], in test [2], in test [3] and in test [4] was above 31.6 µM throughout.

`Cc1cc(C)c2c(=O)cc(-c3ccc(Cl)cc3)[nH]c2n1`: the TGI is above 100 µM in test [1], above 100 µM in test [2], above 100 µM in test [3] and above 93.9 µM in test [4].

For `COC(=O)c1cccc(NC(=O)Nc2ccc3oc(=O)c4ccccc4c3c2)c1`, the GI50 in test [1] was above 100 µM; in test [3], 4.91 µM; in test [4], above 100 µM. In addition, the TGI in test [1], in test [3] and in test [4] was above 100 µM each time.

Take `CCOC(=O)c1sc2nc(SC)nc(Nc3ccc4c(c3)OCCCO4)c2c1N`: the TGI in test [1] is above 100 µM; in test [2], above 100 µM; in test [3] it was 37.2 µM; in test [4], above 100 µM.

As for `c1ccc(COCC23CCN(Cc4ccccc4)C(CC(OCc4ccccc4)C2)S3)cc1` (stereo unspecified), the TGI is 95.9 µM in test [1], above 100 µM in test [2], 72.7 µM in test [3] and above 100 µM in test [4].

As to `COc1cc(-c2c[nH]c3ccccc23)nc(-c2c[nH]c3ccccc23)n1`, the TGI in test [4] came to 18.1 µM.

In the case of `CCCCCCCCCCCCCCCCOP(=O)(O)OP(=O)(O)OCC1OC(n2ccc(N)nc2=O)CC1O` (stereo unspecified), the TGI in test [1], in test [2], in test [3] and in test [4] was above 100 µM throughout.

For the molecule `Cc1[nH]c2c(C)ccc(C)c2c1CC(=O)O`, the TGI is above 100 µM in test [1], above 100 µM in test [2], 62.1 µM in test [3] and above 100 µM in test [4].

As to `CCOC(=O)CSc1nc(-c2ccc(OC)cc2)c(C#N)c(=O)[nH]1`, the TGI in test [1], in test [2], in test [3] and in test [4] was above 100 µM each time.

For `CNC(=O)Nc1cc2c3c(c1)CCCN3CCC2`, the TGI in test [1], in test [2] and in test [3] was above 10 µM in each case.

With `CC(=O)OCC1OC(n2c(C)c(N=Nc3ccc(C)cc3)c(C)c(C#N)c2=S)C(OC(C)=O)C(OC(C)=O)C1OC(C)=O` (stereo unspecified), the TGI in test [1], in test [2] and in test [4] was above 100 µM each time.

Consider `CC(C)[Si](OC12CCC(CC1O)CC2C(=O)O)(C(C)C)C(C)C` (stereo unspecified), for which the TGI in test [1] is 34.7 µM; in test [2], above 100 µM; in test [4] it was 26 µM.

The values are drawn from PubChem BioAssay (NCI).
